# Legend:
# [1] = test system: TGFβ/SMAD Singling Pathway SBE reporter cell line; assay: TGFβ reporter assay (in vitro small molecule screening); format: cell-based; settings: SBE luciferase reporter cells, TGFβ stimulation, 18 h, luminescence
# Protocol: TGFβ/SMAD Singling Pathway SBE reporter cell line was obtained from BPS Bioscience. Cells were passed, expanded, and stored in liquid nitrogen as per the supplier's instructions with the exception that growth media is changed to DMEM-C with Geneticin (DMEM supplemented with 10% fetal bovine serum, 1×NEAA, 1 mM Pyruvate, 2 mM glutamine, 50 μg/mL penicillin, 50 U/mL streptomycin and 400 μg/mL of Geneticin). The assay media was MEM supplemented with […] fetal bovine serum, 1×NEAA, 1 mM Pyruvate, 50 μg/mL penicillin and 50 U/mL streptomycin.
# Test samples (at desired concentrations diluted in assay media) were added to a 96-well assay plate, 20 μL per well. Reporter cells were harvested from the tissue culture flasks by incubation in small quantity of PBS at 37° C. for two minutes after the media in the flask is removed and cells rinsed with PBS. Cells were counted and diluted in the assay media at approximately 0.5×10^6 cells/mL and then 80 μL/well of cells were added to the assay plate containing the 20 μL/well of test samples (or media only), and incubated for approximately 5-6 hours at 37° C. in a 5% CO2 humidified incubator. After that time, 15 μL of TGFβ diluted to 12 ng/mL in the assay media was added to the plate. Controls included TGFβ titration (from 50 to 0 ng/mL) without inhibitors, and media only (without cells, inhibitor or TGFβ). Plates were incubated at 37° C. in a 5% CO2 humidified incubator for 18 h. Luciferase substrate solution is subsequently added at 100 μL per well, incubated in the dark at room temperature for 15 min, and luminescence is measured using a luminometer. EC50 values and curve fits were obtained using Prism (GraphPad Software).
# TGFBR2 = molecular target: T1, TGFBR2 (Homo sapiens, UniProt P37173); assay: TGFBR2 RBC enzyme assay (Reaction Biology Corp.); format: biochemical
# T1 construct: purchased Reaction Biology Corp
# T1 sequence (P37173 23-567): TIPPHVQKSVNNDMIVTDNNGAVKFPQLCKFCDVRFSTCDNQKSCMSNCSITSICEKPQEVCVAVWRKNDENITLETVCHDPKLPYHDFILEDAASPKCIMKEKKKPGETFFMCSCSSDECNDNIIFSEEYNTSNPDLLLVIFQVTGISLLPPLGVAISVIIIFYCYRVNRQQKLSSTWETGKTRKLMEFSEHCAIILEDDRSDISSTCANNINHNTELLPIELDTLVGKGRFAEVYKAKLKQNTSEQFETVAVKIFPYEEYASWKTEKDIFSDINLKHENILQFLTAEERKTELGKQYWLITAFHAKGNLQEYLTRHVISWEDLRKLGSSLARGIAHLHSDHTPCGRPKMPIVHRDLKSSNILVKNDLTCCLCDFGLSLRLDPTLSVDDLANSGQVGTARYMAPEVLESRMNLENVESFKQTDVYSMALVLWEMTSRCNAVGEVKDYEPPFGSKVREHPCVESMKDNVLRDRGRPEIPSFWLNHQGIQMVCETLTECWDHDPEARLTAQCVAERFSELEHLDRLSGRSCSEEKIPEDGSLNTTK
# Protocol: Compounds of the disclosure were assayed by Reaction Biology Corp. using the TGFBR2 RBC enzyme assay.
EC50 [1] [nM],EC50 (TGFBR2) [nM],SMILES
> 5000,> 1000,"Nc1ncc2nc1C(=O)Nc1cnccc1NCCCCOc1cccc-2c1 [Compound 2, 2^5-amino-11-oxa-4,6-diaza-2(2,6)-pyrazina-5(3,4)-pyridina-1(1,3)-benzenacycloundecaphan-3-one]"
1 to 1000,1 to 100,"CN1CCCOc2cc(ccc2CCCCN)-c2cnc(N)c(n2)C(=O)Nc2cnccc21 [Compound 62, 2^5-amino-1^4-(4-aminobutyl)-6-methyl-10-oxa-4,6-diaza-2(2,6)-pyrazin-5(3,4)-pyridina-1(1,3)-benzenacyclodecaphan-3-one]"
> 5000,100 to 1000,"CN1CCNC(=O)c2cc(ccc2OCCCN)-c2cnc(N)c(n2)C(=O)Nc2cnccc21 [Compound 55, 2^5-amino-1^4-(3-aminopropoxy)-6-methyl-4,6,9-triaza-2(2,6)-pyrazina-5(3,4)-pyridina-1(1,3)-benzenacyclodecaphane-3,10-dione]"
1 to 1000,1 to 100,"Nc1ncc2nc1C(=O)Nc1cnccc1OCCOc1ccc(Br)c-2c1 [Compound 49, 2^5-amino-16-bromo-6,9-dioxa-4-aza-2(2,6)-pyrazina-5(3,4)-pyridina-1(1,3)-benzenacyclononaphan-3-one]"
1 to 1000,1 to 100,"Cc1ccc2cc1OCCCN(C)c1ccncc1NC(=O)c1nc-2cnc1N [Compound 12, 2^5-amino-1^4,6-dimethyl-10-oxa-4,6-diaza-2(2,6)-pyrazina-5(3,4)-pyridina-1(1,3)-benzenacyclodecaphan-3-one]"
1 to 1000,1 to 100,"CN1CCC(=O)N(C)c2cccc(c2)-c2cnc(N)c(n2)C(=O)Nc2cnccc21 [Compound 27, 2^5-amino-6,10-dimethyl-4,6,10-triaza-2(2,6)-pyrazina-5(3,4)-pyridina-1(1,3)-benzenacyclodecaphane-3,9-dione]"
> 5000,> 1000,"CN1C[C@H](CNCc2ccccc2)Oc2ccccc2-c2cnc(N)c(n2)C(=O)Nc2cnccc21 [Compound 59, (S)-2^5-amino-8-((benzylamino)methyl)-6-methyl-9-oxa-4,6-diaza-2(2,6)-pyrazina-5(3,4)-pyridina-1(1,2)-benzenacyclononaphan-3-one]"
1 to 1000,100 to 1000,"CCN1CCCOc2cccc(c2)-c2cnc(N)c(n2)C(=O)Nc2cnccc21 [Compound 13, 2^5-amino-6-ethyl-10-oxa-4,6-diaza-2(2,6)-pyrazina-5(3,4)-pyridina-1(1,3)-benzenacyclodecaphan-3-one]"
> 5000,> 1000,"CN1CCNC(=O)c2cccc(c2)-c2cnc(N)c(n2)C(=O)Nc2cnccc21 [Compound 30, 2^5-amino-6-methyl-4,6,9-triaza-2(2,6)-pyrazina-5(3,4)-pyridina-1(1,3)-benzenacyclodecaphane-3,10-dione]"
1 to 1000,1 to 100,CC1OCCN(C)c2ccncc2NC(=O)c2nc(cnc2N)-c2cccc1c2 (centres unmarked) [Compound 20]
1000 to 5000,1 to 100,"CN1CCN(C)c2ccncc2NC(=O)c2nc(cnc2N)-c2ccc(OCCCN)c(c2)C1=O [Compound 56, 2^5-amino-1^4-(3-aminopropoxy)-6,9-dimethyl-4,6,9-triaza-2(2,6)-pyrazina-5(3,4)-pyridina-1(1,3)-benzenacyclodecaphene-3,10-dione]"
1 to 1000,1 to 100,"CN1CCCCc2cc(ccc2OCCCN)-c2cnc(N)c(n2)C(=O)Nc2cnccc21 [Compound 63, 2^5-amino-1^4-(3-aminopropxy)-6-methyl-4,6-diaza-2(2,6)-pyrazina-5(3,4)-pyridina-1(1,3)-benzenacyclodecaphan-3-one]"
1 to 1000,1 to 100,"Nc1ncc2nc1C(=O)Nc1cnccc1N1CCC(COc3cccc-2c3)C1 (centres unmarked) [Compound 25, 1^5-amino-3-oxa-7-aza-1(2,6)-pyrazina-6(4,3)-pyridina-5(3,1)-pyrrolidina-2(1,3)-benzenacyclooctaphan-8-one]"
1000 to 5000,> 1000,"CN1C[C@@H](CN)Oc2ccccc2-c2cnc(N)c(n2)C(=O)Nc2cnccc21 [Compound 60, (R)-2^5-amino-8-(aminomethyl)-6-methyl-9-oxa-4,6-diaza-2(2,6)-pyrazina-5(3,4)-pyridina-1(1,2)-benzenacyclononaphan-3-one]"
1 to 1000,100 to 1000,"CC(C)(C)OC(=O)N1C[C@@H]2C[C@H]1COc1cccc(c1)-c1cnc(N)c(n1)C(=O)Nc1cnccc1O2 (racemic) [Compound 37, (±)-tert-butyl(5^2,5^4-cis)-1^5-amino-9-oxo-3,6-dioxa-8-aza-1(2,6)-pyrazina-7(4,3)-pyridina-5(2,4)-pyrrolidina-2(1,3)-benzenacyclononaphane-51-carboxylate]"
> 5000,> 1000,"Nc1ncc2nc1C(=O)Nc1cnccc1NCCCCCOc1cccc-2c1 [Compound 3, 2^5-amino-12-oxa-4,6-diaza-2(2,6)-pyrazina-5(3,4)-pyridina-1(1,3)-benzenacyclododecaphan-3-one]"
1000 to 5000,100 to 1000,"Nc1ncc2nc1C(=O)Nc1cnccc1N1CCOC(COc3cccc-2c3)C1 (centres unmarked) [Compound 8, 5^3-amino-7-oxa-3-aza-1(4,2)-morpholina-5(2,6)-pyrazina-2(4,3)-pyridina-6(1,3)-benzenacyclooctaphan-4-one]"
1 to 1000,1 to 100,"CN1CCOc2ccc(OCCCN)cc2-c2cnc(N)c(n2)C(=O)Nc2cnccc21 [Compound 64, 2^5-amino-1^5-(3-aminopropoxy)-6-methyl-9-oxa-4,6-diaza-2(2,6)-pyrazina-5(3,4)-pyridina-1(1,2)-benzenacyclononaphan-3-one]"
1000 to 5000,> 1000,"CN1C[C@H](CN)Oc2ccccc2-c2cnc(N)c(n2)C(=O)Nc2cnccc21 [Compound 58, (S)-2^5-amino-8-(aminomethyl)-6-methyl-9-oxa-4,6-diaza-2(2,6)-pyrazina-5(3,4)-pyridina-1(1,2)-benzenacyclononaphan-3-one]"
1000 to 5000,> 1000,"CN1C[C@@H](CNCc2ccccc2)Oc2ccccc2-c2cnc(N)c(n2)C(=O)Nc2cnccc21 [Compound 57, (R)-2^5-amino-8-((benzylamino)methyl)-6-methyl-9-oxa-4,6-diaza-2(2,6)-pyrazin-5(3,4)-pyridina-1(1,2)-benzenacyclononaphan-3-one]"
1 to 1000,1 to 100,"CN1CCC(=O)Nc2cccc(c2)-c2cnc(N)c(n2)C(=O)Nc2cnccc21 [Compound 26, 2^5-amino-6-methyl-4,6,10-triaza-2(2,6)-pyrazina-5(3,4)-pyridina-1(1,3)-benzenacyclodecaphene-3,9-dione]"
1000 to 5000,100 to 1000,"CN1CCCCOc2ccccc2-c2cnc(N)c(n2)C(=O)Nc2cnccc21 [Compound 34, 2^5-amino-6-methyl-11-oxa-4,6-diaza-2(2,6)-pyrazina-5(3,4)-pyridina-1(1,2)-benzenacycloundecaphan-3-one]"
> 5000,> 1000,"Nc1ncc2nc1C(=O)Nc1cnccc1NCCOCCOCCOCCOc1cccc-2c1 [Compound 7, 2^5-amino-9,12,15,18-tetraoxa-4,6-diaza-2(2,6)-pyrazina-5(3,4)-pyridina-1(1,3)-benzenacyclooctadecaphan-3-one]"
1 to 1000,1 to 100,"Nc1ncc2nc1C(=O)Nc1cnccc1O[C@@H]1CN[C@H](COc3cccc-2c3)C1 (racemic) [Compound 38, (±)-(5^2,5^4-cis)-1^5-amino-3,6-dioxa-8-aza-1(2,6)-pyrazina-7(4,3)-pyridina-5(2,4)-pyrrolidina-2(1,3)-benzenacyclononaphan-9-one]"
1000 to 5000,> 1000,"Nc1ncc2nc1C(=O)Nc1cnccc1OC[C@@H]1C[C@H](CN1)Oc1cccc-2c1 (racemic) [Compound 40, (±)-(4^3,4^5-trans)-1^5-amino-3,6-dioxa-8-aza-1(2,6)-pyrazina-7(4,3)-pyridina-4(3,5)-pyrrolidina-2(1,3)-benzenacyclononaphan-9-one]"
1 to 1000,1 to 100,"CN1CCCCCOc2cccc(c2)-c2cnc(N)c(n2)C(=O)Nc2cnccc21 [Compound 9, 2^5-amino-6-methyl-12-oxa-4,6-diaza-2(2,6)-pyrazina-5(3,4)-pyridina-1(1,3)-benzenacyclododecaphan-3-one]"
1 to 1000,1 to 100,"CN1CCCOc2cccc(c2)-c2cnc(N)c(n2)C(=O)Nc2cnccc21 [Compound 6, 2^5-amino-6-methyl-10-oxa-4,6-diaza-2(2,6)-pyrazina-5(3,4)-pyridina-1(1,3)-benzenacyclodecaphan-3-one]"
> 5000,> 1000,"Nc1ncc2nc1C(=O)Nc1cnccc1NCCOCCOCCOc1cccc-2c1 [Compound 1, 2^5-amino-9,12,15-trioxa-4,6-diaza-2(2,6)-pyrazina-5(3,4)-pyridina-1(1,3)-benzenacyclopentadecaphan-3-one]"

# Source: patent US20220169660A1, “CYCLIC AMINO-PYRAZINECARBOXAMIDE COMPOUNDS AND USES THEREOF” (SILVERBACK THERAPEUTICS, INC., priority 2019, published 2022)
